Source: PubChem BioAssay (NCI)
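A five-concentration, 48-hour dose response in 96-well plates underlies each endpoint, interpolated linearly between surrounding concentrations. TGI: total growth inhibition.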

Legend:
Experiment in all cases: inhibition of tumour cell growth, NCI panel, 48 h
ACHN renal = test system: ACHN renal
EKVX NSCLC = test system: EKVX NSCLC
HOP-92 NSCLC = test system: HOP-92 NSCLC
IGROV1 ovarian = test system: IGROV1 ovarian
MCF7 breast = test system: MCF7 breast
MOLT-4 leukemia = test system: MOLT-4 leukemia
RPMI-8226 leukemia = test system: RPMI-8226 leukemia
SK-MEL-2 melanoma = test system: SK-MEL-2 melanoma
SK-MEL-5 melanoma = test system: SK-MEL-5 melanoma
SNB-75 CNS = test system: SNB-75 CNS
SW-620 colon = test system: SW-620 colon
T-47D breast = test system: T-47D breast
UACC-62 melanoma = test system: UACC-62 melanoma

Measured: TGI

COc1cc(OC)c2nc(C)c3c(c2c1)OCC3
> 100 µM: ACHN renal | EKVX NSCLC | HOP-92 NSCLC | IGROV1 ovarian | MCF7 breast | MOLT-4 leukemia | RPMI-8226 leukemia | SK-MEL-2 melanoma | SK-MEL-5 melanoma | SNB-75 CNS | SW-620 colon | T-47D breast | UACC-62 melanoma
